Results: patent publication US9487557B2, “Peptides for management of lactation” (MILEUTIS LTD., priority 2012, dated 2016)
Square brackets hold non-standard residues; d marks the D form. Ends that are not written are not given here. pS = N[C@@H](COP(=O)(O)O)C(=O)O

Columns and labels:
Assay type in all cases: in vivo
[1] = system: mammary gland of lactating dairy cows; test: Field study of involution induction: change of pH in milk samples after a single intramammary infusion at dry-off; settings: for Changes of pH in milk samples, Day 1, Mean / Changes of pH in milk samples, Day 2, Mean / Changes of pH in milk samples, Day 3, Mean: difference in pH vs Day 0, single intramammary infusion, peptides 4 mg in 10 ml, casein hydrolyzate 20 ml; for Changes of pH in milk samples, Day 1, Mean: Day 1 post treatment; for Changes of pH in milk samples, Day 2, Mean: Day 2 post treatment; for Changes of pH in milk samples, Day 3, Mean: Day 3 post treatment
Description: (§1) A filed study was performed to assess the potential of a single intramammary dose of the synthetic peptides of the invention administered at dry (i.e. at the day in which milking is ceased), to induce rapid involution.
(§2) Total of 107 dairy cows were enrolled to the study, of which 45 received treatment and 62 served as a control. All cows were dairy cows at their first or further lactation that stand the inclusion/exclusion criteria. The study was a controlled blinded case-control study.
(§3) Case subjects received one dose by intramammary infusion of a particular peptide. Controls were lactating cows that received the following products by intramammary administration:
(§4) Five groups of 9 cows (total of 36 udder quarters per group) were scheduled as case groups. Each group was treated with one out of the five (5) phosphopeptides described in Example 1 hereinabove (P241210-01-01; 03; 05; 07 and 09). The peptides were administered once via intramammary infusion of 10 ml containing 4 mg peptide.
(§5) Set one: Five groups of 9 cows (total of 36 udder quarters per group) were scheduled as a first control set. Each group was treated with one out of the five (5) dephosphorylated peptides described in Example 1 hereinabove (P241210-01-02; 04; 06; 08 and 10). The peptides were administered once via intramammary infusion of 10 ml containing 4 mg peptide.
(§6) (i) Eleven cows (total of 44 udder quarters) treated with casein hydrolyzate (20 ml) administered once via intramammary infusion of 20 ml (around 1.8 mg/ml casein phosphopeptide (CPP), total=36 mg CPP for 20 ml)
(§7) All treatments (peptides, casein hydrolyzate and saline) were administered at the time point scheduled for cessation of milking (dry off). The day of administration was set as Day 0.
(§8) Sets of aseptic milk samples were collected in two separate vials once a day in the milking facility after the morning milking, on Day 0 and in post-treatment days 1, 2 and 3. The sampling time points were set to up to three days after treatment administration to ensure sufficient milk secretion for the measurements of all involution parameters. The volume of the samples was between 30 to 50 ml. The pH of the milk sample was measured in situ using a Cyberscan pH11 meter (Eutech Instruments, Singapore). The apparatus was calibrated each day by immersing the receptor in standard buffers of pH 7.0 and pH 4.01. Measurements were taken twice for each sample obtained from a mammary gland, with an interval of 30 seconds between measurements. pH measurement was repeated on-site by using the same sample vial. Before double-pH measurement, the milk sample vials were gently shaken three (3) times. After the pH measurement, the milk samples vials were kept in cool storage with a preservative product (Broad Spectrum Microtabs II—Bronopol and Metamycin—D&F Control System Inc., Two Technology Way, Norwood Mass. 02062 USA).
(§9) Endpoint Measures: pH, lactose and somatic cell counts (SCC) values from milk secretions at day 0 and during three (3) days post-treatment were taken. Results are described as the difference between the measures at each of the 3 days post treatment and the measured level at Day 0.
Table 2 below summarizes the effect of the peptides examined and of casein hydrolyzate (CNH) on the pH of milk samples taken 1, 2 and 3 days after the one-dose treatment with each peptide or CNH. The results are presented as the difference in pH value between each of the days post treatment and Day 0 (before treatment).

[2] = system: mammary gland of lactating dairy cows; test: Field study of involution induction: change in somatic cell counts in milk samples after a single intramammary infusion at dry-off; settings: for Changes in Somatic Cell Counts in milk samples, Day 1, Mean / Changes in Somatic Cell Counts in milk samples, Day 2, Mean / Changes in Somatic Cell Counts in milk samples, Day 3, Mean: change vs Day 0, calculated from log transformation of raw data, single intramammary infusion, peptides 4 mg in 10 ml, casein hydrolyzate 20 ml; for Changes in Somatic Cell Counts in milk samples, Day 1, Mean: Day 1 post treatment; for Changes in Somatic Cell Counts in milk samples, Day 2, Mean: Day 2 post treatment; for Changes in Somatic Cell Counts in milk samples, Day 3, Mean: Day 3 post treatment
Description: as §1, §2, §3, §4, §5, §6, §7, §8
Somatic cell count was also determined in milk samples by Fossomatic 360 (Foss Electric, Hillerod, Denmark), and based on guidelines from the USA National Mastitis Council. Laboratory Handbook on Bovine Mastitis. 1999. Ed. National Mastitis Council, Verona, Wis. 53593 USA.
as §9
Additional parameter that may be used to establish the progression of the involution process is the presence of somatic cells within the milk. The increase in cell count within the milk is the result of high degree of apoptotic epithelial cell death associated with involution. […] The results presented in the table were calculated from log transformation of the raw data that were highly variable.

[3] = system: mammary gland of lactating dairy cows; test: Field study of involution induction: change in lactose content of milk samples after a single intramammary infusion at dry-off; settings: for Changes in Lactose content in milk samples, Day 1, Mean / Changes in Lactose content in milk samples, Day 2, Mean / Changes in Lactose content in milk samples, Day 3, Mean: difference in lactose concentration vs Day 0, single intramammary infusion, peptides 4 mg in 10 ml, casein hydrolyzate 20 ml; for Changes in Lactose content in milk samples, Day 1, Mean: Day 1 post treatment; for Changes in Lactose content in milk samples, Day 2, Mean: Day 2 post treatment; for Changes in Lactose content in milk samples, Day 3, Mean: Day 3 post treatment
Description: as §1, §2, §3, §4, §5, §6, §7, §8
Lactose values in the milk samples were determined at the Central Laboratory of Milk Quality, Caesaria Industrial Park, Israel, according to ISO 2266211DF 198:2007.
Data from six quarters were excluded from the analysis of lactose changes. Data from one of those quarters were omitted due to a missing initial value. For the other five quarters, lactose concentrations taken during the three follow-up days could not be analyzed due to a rapid mammary involution process, resulting in non-sufficient milk sample for lactose analysis.
as §9
One of the most significant outcomes of involution in terms of milk composition is a reduction in lactose content. Thus, lactose concentration was also measured in the milk samples taken before and after peptide or CNH administration as described for the pH measurements hereinabove. […]

| Substance | Changes of pH in milk samples, Day 1, Mean [1] | Changes of pH in milk samples, Day 2, Mean [1] | Changes of pH in milk samples, Day 3, Mean [1] | Changes in Somatic Cell Counts in milk samples, Day 1, Mean [2] | Changes in Somatic Cell Counts in milk samples, Day 2, Mean [2] | Changes in Somatic Cell Counts in milk samples, Day 3, Mean [2] | Changes in Lactose content in milk samples, Day 1, Mean [3] | Changes in Lactose content in milk samples, Day 2, Mean [3] | Changes in Lactose content in milk samples, Day 3, Mean [3] | effect on the milk pH, in words ([1]; compared with the other peptides and casein hydrolyzate, particularly first 2 days after treatment) | induction of involution, overall conclusion in words ([2]; conclusion from pH, lactose and somatic cell count results) | effect on the reduction of lactose content, in words ([3]; all time points examined, compared with CNH) |
| --- | --- | --- | --- | --- | --- | --- | --- | --- | --- | --- | --- | --- |
| ESLSSSEE-NH2 [D] | 0.000 | −0.027 | 0.013 | 0.387 | 1.023 | −0.249 | −0.749 | −1.387 | −0.090 | – | – | – |
| Glu-Ser(P)-Leu-Ser(P)-Ser(P)-Ser(P)-Glu-Glu-NH2 (E[pS]L[pS][pS][pS]EE-NH2; N-terminus assumed; SMILES CC(C)C[C@H](NC(=O)[C@H](COP(=O)(O)O)NC(=O)[C@@H](N)CCC(=O)O)C(=O)N[C@@H](COP(=O)(O)O)C(=O)N[C@@H](COP(=O)(O)O)C(=O)N[C@@H](COP(=O)(O)O)C(=O)N[C@@H](CCC(=O)O)C(=O)N[C@@H](CCC(=O)O)C(N)=O) [D(p), casein-derived peptide, positive control] | 0.027 | −0.018 | 0.077 | 0.383 | 1.181 | 1.998 | −0.431 | −1.460 | −2.180 | – | – | – |
| KKSLSS-NH2 [A] | 0.048 | −0.002 | 0.072 | 0.911 | 1.571 | 2.090 | −0.463 | −1.268 | −1.773 | – | – | – |
| KSSSEE-NH2 | 0.047 | −0.028 | 0.115 | −0.186 | 0.843 | 1.492 | −0.368 | −1.531 | −1.675 | – | – | – |
| Lys-Lys-Ser(P)-Leu-Ser(P)-Ser(P)-Ser(P)-NH2 (KK[pS]L[pS][pS][pS]-NH2; N-terminus assumed; SMILES CC(C)C[C@H](NC(=O)[C@H](COP(=O)(O)O)NC(=O)[C@H](CCCCN)NC(=O)[C@@H](N)CCCCN)C(=O)N[C@@H](COP(=O)(O)O)C(=O)N[C@@H](COP(=O)(O)O)C(=O)N[C@@H](COP(=O)(O)O)C(N)=O) [A(p)] | 0.016 | 0.020 | 0.118 | 0.592 | 1.212 | 1.829 | −0.462 | −1.364 | −1.771 | – | – | – |
| Lys-Lys-Ser(P)-Ser(P)-NH2 (KK[pS][pS]-NH2; N-terminus assumed; SMILES NCCCC[C@H](NC(=O)[C@@H](N)CCCCN)C(=O)N[C@@H](COP(=O)(O)O)C(=O)N[C@@H](COP(=O)(O)O)C(N)=O) [C(p)] | 0.066 | 0.046 | 0.119 | −0.129 | 0.961 | 0.195 | −0.509 | −1.427 | −0.345 | – | – | – |
| Lys-Lys-Ser(P)-Ser(P)-Ser(P)-NH2 (KK[pS][pS][pS]-NH2; N-terminus assumed; SMILES NCCCC[C@H](NC(=O)[C@@H](N)CCCCN)C(=O)N[C@@H](COP(=O)(O)O)C(=O)N[C@@H](COP(=O)(O)O)C(=O)N[C@@H](COP(=O)(O)O)C(N)=O) [B(p)] | 0.171 | 0.165 | 0.163 | 3.129 | 3.099 | 3.451 | −1.250 | −2.013 | −2.521 | showed the most significant effect on the milk pH | highly effective in inducing involution | higher effect on the reduction of lactose content compared to the effect of CNH |
| Lys-Lys-Ser-Ser-NH2 [C] | 0.034 | −0.006 | −0.001 | 0.511 | 1.194 | 0.650 | −0.846 | −1.554 | −0.387 | – | – | – |
| Lys-Lys-Ser-Ser-Ser-NH2 [B] | −0.015 | −0.019 | 0.065 | 0.109 | 0.664 | 1.191 | −0.320 | −0.969 | −1.412 | – | – | – |
